Reference: patent publication US7417024B2, “Template-fixed peptidomimetics as inhibitors of serine proteases” (Polyphor Ltd., priority 2001, dated 2008)
Values belong to the molecule of their own block, whether it stands above or below them. Where a SMILES comes first, the peptide text is derived from it. Bridges are numbered along the chain shown (N, C = ends). [ ]: non-standard residue; d: D form.

Legend:
Chymotrypsin [1] = biological target: Chymotrypsin (Homo sapiens, UniProt P17538); experiment: Enzymatic assay, chymotrypsin inhibition (apparent Ki); format: biochemical; settings: substrate N-succinyl-Ala-Ala-Pro-Phe-4-nitroanilide 1.6 mM
Protocol: (§1) The active enzyme concentrations were calculated using the equation described by Hendersen (P. J. F. Hendersen, Biochem. J. 1972, 127, 321-333). The inhibitor concentrations were determined by quantitative amino acid analysis. All assays were repeated in quadruplicate.
(§2) As above, except the substrate was N-succinyl-L-alanyl-L-alanyl-L-prolyl-L-phenylalanin-4-nitroanilide (N-succinyl—SEQ ID NO:16—4-nitroanilide; 1.6 mM).
(§3) Apparent Ki values were calculated by fitting the initial rate data to the following equation, which assumes competitive tight-binding inhibition (J. F. Williams, J. F. Morrison, Methods Enzymol. 1979, 63, 437-467): […]

Trypsin [2] = biological target: T1, Trypsin (Bos taurus, UniProt P00760); experiment: Enzymatic assay, determination of antitrypsin activity (apparent Ki); format: biochemical; settings: competitive tight-binding fit
T1 sequence (P00760 24-246): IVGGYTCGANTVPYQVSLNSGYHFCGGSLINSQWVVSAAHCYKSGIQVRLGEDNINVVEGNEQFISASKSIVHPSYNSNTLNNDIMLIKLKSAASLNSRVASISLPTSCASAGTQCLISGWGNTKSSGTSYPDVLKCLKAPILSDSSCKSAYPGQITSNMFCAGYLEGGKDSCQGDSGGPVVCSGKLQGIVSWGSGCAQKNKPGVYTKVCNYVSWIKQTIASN
Protocol: as §1
Determination of Antitrypsin Activity
as §2, §3

Cathepsin G = biological target: T2, Cathepsin G (human, UniProt P08311 21-244); experiment: enzyme inhibition, Suc-Ala-Ala-Pro-Phe-pNA substrate, release of p-nitroanilide at 405 nm
T2 construct: the assay paragraph itself says only 'cathepsin G ... purchased from Calbiochem'; also called human cathepsin G
T2 sequence (looked up): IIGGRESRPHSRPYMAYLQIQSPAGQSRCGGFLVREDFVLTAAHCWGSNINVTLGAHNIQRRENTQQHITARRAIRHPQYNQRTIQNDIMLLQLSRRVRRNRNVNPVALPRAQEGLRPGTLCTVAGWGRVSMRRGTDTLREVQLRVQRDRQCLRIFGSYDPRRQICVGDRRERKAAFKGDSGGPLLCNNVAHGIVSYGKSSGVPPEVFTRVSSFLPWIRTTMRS
Protocol: Determination of Anti Cathepsin G Activity […] of a solution of cathepsin G (0.2 U/mL, corresponding to around 2 µM, purchased from Calbiochem) were incubated for 15 minutes with increasing concentrations of inhibitor. The assays were carried out at 37° C. in a total volume of 700 µl of HEPES buffer (pH 7.5; 0.1 mol/L) containing 0.05 mol/L CaCl_2. Then, 70 µl of the following substrate at 20 mM in DMSO were added (—N-succinyl-L-alanyl-L-alanyl-L-prolyl-L-phenylalanin-4-nitroanilide, (N-succinyl—SEQ ID NO:16—4-nitroanilide). The release of p-nitroanilide was monitored at 405 nm to determine the initial velocities of the reactions. Each measurement was reproduced three times (A. J. Barrett, Methods in Enzymology 1981, 80, 561-565).

Trypsin [3] = experiment: enzyme inhibition, chromogenic substrate; apparent Ki fitted as competitive tight-binding inhibition
Chymotrypsin [4] = experiment: as above

Chymotrypsin (Homo sapiens, UniProt P17538), sequence (P17538 19-263): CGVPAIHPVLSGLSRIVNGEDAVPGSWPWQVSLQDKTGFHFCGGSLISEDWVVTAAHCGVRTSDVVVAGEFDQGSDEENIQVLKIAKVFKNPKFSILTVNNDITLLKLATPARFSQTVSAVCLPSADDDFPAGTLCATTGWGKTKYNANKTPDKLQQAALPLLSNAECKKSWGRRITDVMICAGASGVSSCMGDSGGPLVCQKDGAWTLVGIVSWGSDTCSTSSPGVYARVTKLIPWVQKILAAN

Ki (Chymotrypsin [1]): > 10000 nM
Ki (Trypsin [2]): 100 nM
Molecule: CC[C@H](C)[C@@H]1NC(=O)[C@@H]2CCCN2C(=O)[C@@H]2CCCN2C(=O)[C@H]([C@@H](C)CC)NC(=O)[C@H](CO)NC(=O)[C@H](CCCCN)NC(=O)[C@H]([C@@H](C)O)NC(=O)[C@@H]2CCCN2C(=O)[C@H]2CCCN2C1=O [Ex. 1] (cyclo(TKSIPPI[dP]P))

Ki (Trypsin [2]): 1500 nM
Molecule: CC[C@H](C)[C@@H]1NC(=O)[C@@H]2CCCN2C(=O)[C@@H]2CCCN2C(=O)[C@H]([C@@H](C)CC)NC(=O)[C@H](CO)NC(=O)[C@H](CCCCN)NC(=O)[C@H](C)NC(=O)[C@@H]2CCCN2C(=O)[C@H]2CCCN2C1=O [Ex. 2] (cyclo(AKSIPPI[dP]P))

Ki (Trypsin [2]): > 10000 nM
Molecule: CC[C@H](C)[C@@H]1NC(=O)[C@@H]2CCCN2C(=O)[C@@H]2CCCN2C(=O)[C@H]([C@@H](C)CC)NC(=O)[C@H](CO)NC(=O)[C@H](C)NC(=O)[C@H]([C@@H](C)O)NC(=O)[C@@H]2CCCN2C(=O)[C@H]2CCCN2C1=O [Ex. 3] (cyclo(TASIPPI[dP]P))

Ki (Trypsin [2]): 700 nM
Molecule: CC[C@H](C)[C@@H]1NC(=O)[C@@H]2CCCN2C(=O)[C@@H]2CCCN2C(=O)[C@H]([C@@H](C)CC)NC(=O)[C@H](C)NC(=O)[C@H](CCCCN)NC(=O)[C@H]([C@@H](C)O)NC(=O)[C@@H]2CCCN2C(=O)[C@H]2CCCN2C1=O [Ex. 4] (cyclo(TKAIPPI[dP]P))

Ki (Trypsin [2]): 1900 nM
Molecule: CC[C@H](C)[C@@H]1NC(=O)[C@@H]2CCCN2C(=O)[C@@H]2CCCN2C(=O)[C@H](C)NC(=O)[C@H](CO)NC(=O)[C@H](CCCCN)NC(=O)[C@H]([C@@H](C)O)NC(=O)[C@@H]2CCCN2C(=O)[C@H]2CCCN2C1=O [Ex. 5] (cyclo(TKSAPPI[dP]P))

Ki (Trypsin [2]): > 25000 nM
Molecule: CC[C@H](C)[C@@H]1NC(=O)[C@H](CO)NC(=O)[C@H](CCCCN)NC(=O)[C@H]([C@@H](C)O)NC(=O)[C@@H]2CCCN2C(=O)[C@H]2CCCN2C(=O)[C@H]([C@@H](C)CC)NC(=O)[C@@H]2CCCN2C(=O)[C@H](C)NC1=O [Ex. 6] (cyclo(TKSIAPI[dP]P))

Ki (Trypsin [2]): 110 nM
Molecule: CC[C@H](C)[C@@H]1NC(=O)[C@H](C)NC(=O)[C@@H]2CCCN2C(=O)[C@H]([C@@H](C)CC)NC(=O)[C@H](CO)NC(=O)[C@H](CCCCN)NC(=O)[C@H]([C@@H](C)O)NC(=O)[C@@H]2CCCN2C(=O)[C@H]2CCCN2C1=O [Ex. 7] (cyclo(TKSIPAI[dP]P))

Ki (Trypsin [2]): 710 nM
Molecule: CC[C@H](C)[C@@H]1NC(=O)[C@H](CO)NC(=O)[C@H](CCCCN)NC(=O)[C@H]([C@@H](C)O)NC(=O)[C@@H]2CCCN2C(=O)[C@H]2CCCN2C(=O)[C@H](C)NC(=O)[C@@H]2CCCN2C(=O)[C@@H]2CCCN2C1=O [Ex. 8] (cyclo(TKSIPPA[dP]P))

Ki (Chymotrypsin [1]): 4400 nM
Ki (Trypsin [2]): > 25000 nM
Molecule: CC[C@H](C)[C@@H]1NC(=O)[C@@H]2CCCN2C(=O)[C@@H]2CCCN2C(=O)[C@H]([C@@H](C)CC)NC(=O)[C@H](CO)NC(=O)[C@H](Cc2ccc(O)cc2)NC(=O)[C@H]([C@@H](C)O)NC(=O)[C@@H]2CCCN2C(=O)[C@H]2CCCN2C1=O [Ex. 9] (cyclo(TYSIPPI[dP]P))

Ki (Chymotrypsin [1]): 1400 nM
Ki (Trypsin [2]): > 20000 nM
Molecule: CC[C@H](C)[C@@H]1NC(=O)[C@@H]2CCCN2C(=O)[C@@H]2CCCN2C(=O)[C@H]([C@@H](C)CC)NC(=O)[C@H](CO)NC(=O)[C@H](Cc2c[nH]c3ccccc23)NC(=O)[C@H]([C@@H](C)O)NC(=O)[C@@H]2CCCN2C(=O)[C@H]2CCCN2C1=O [Ex. 10] (cyclo(TWSIPPI[dP]P))

Ki (Chymotrypsin [1]): 4700 nM
Ki (Trypsin [2]): > 20000 nM
Molecule: CC[C@H](C)[C@@H]1NC(=O)[C@@H]2CCCN2C(=O)[C@@H]2CCCN2C(=O)[C@H]([C@@H](C)CC)NC(=O)[C@H](CO)NC(=O)[C@H](Cc2ccccc2)NC(=O)[C@H]([C@@H](C)O)NC(=O)[C@@H]2CCCN2C(=O)[C@H]2CCCN2C1=O [Ex. 11] (cyclo(TFSIPPI[dP]P))

Ki (Chymotrypsin [1]): 3800 nM
Ki (Trypsin [2]): 21 nM
Molecule: CC[C@H](C)[C@@H]1NC(=O)[C@@H]2CCCN2C(=O)[C@@H]2CCCN2C(=O)[C@H]([C@@H](C)CC)NC(=O)[C@H](CO)NC(=O)[C@H](CCCCN)NC(=O)[C@H]([C@@H](C)O)NC(=O)[C@@H]2CSSC[C@H](NC1=O)C(=O)N[C@@H](Cc1ccccc1)C(=O)N1CCC[C@@H]1C(=O)N1CCC[C@H]1C(=O)N[C@@H](CCCNC(=N)N)C(=O)N2 [Ex. 15] (cyclo(RCTKSIPPICF[dP]P); disulfide 2-10)

Ki (Cathepsin G): 100000 nM
Ki (Trypsin [3]): 100 nM
B1: Ex. 1 (peptide)
peptide: cyclo(TKSIPPI[dP]P)
SMILES: CC[C@H](C)[C@@H]1NC(=O)[C@@H]2CCCN2C(=O)[C@@H]2CCCN2C(=O)[C@H]([C@@H](C)CC)NC(=O)[C@H](CO)NC(=O)[C@H](CCCCN)NC(=O)[C@H]([C@@H](C)O)NC(=O)[C@@H]2CCCN2C(=O)[C@H]2CCCN2C1=O
notes: Template-fixed beta-hairpin mimetic, cyclic; parent of the Ala scan

Ki (Cathepsin G): 10000 nM
Ki (Chymotrypsin [4]): 3800 nM
Ki (Trypsin [3]): 21 nM
B2: Ex. 15 (peptide)
peptide: cyclo(RCTKSIPPICF[dP]P)
modifications: disulfide 2-10
SMILES: CC[C@H](C)[C@@H]1NC(=O)[C@@H]2CCCN2C(=O)[C@@H]2CCCN2C(=O)[C@H]([C@@H](C)CC)NC(=O)[C@H](CO)NC(=O)[C@H](CCCCN)NC(=O)[C@H]([C@@H](C)O)NC(=O)[C@@H]2CSSC[C@H](NC1=O)C(=O)N[C@@H](Cc1ccccc1)C(=O)N1CCC[C@@H]1C(=O)N1CCC[C@H]1C(=O)N[C@@H](CCCNC(=N)N)C(=O)N2
notes: n=11 mimetic made by procedure 3 (disulfide between P2 and P10)
